Experimental data published in patent publication EP1599478B1, “DIHYDROPTERIDINONES, METHOD FOR THE PRODUCTION AND USE THEREOF IN THE FORM OF DRUGS” (Boehringer Ingelheim Pharma GmbH & Co.KG, priority 2003, dated 2004).
Where two headings read alike, the source gives them in different places.

Tested on: HeLaS3 Zellen
Assay: Cytotoxicity test on cultured human tumour cells (AlamarBlue)
Type: cell-based
Settings: read-out: HELA
From the text: Die Wirkung der erfindungsgemäBen Verbindungen wurde im Cytotoxizitätstest an kultivierten humanen Tumorzellen und/oder in einer FACS-Analyse, beispielsweise an HeLaS3-Zellen, bestimmt.
Messung der Cytotoxizität an kultivierten humanen Tumorzellen
Zur Messung der Cytotoxizität an kultivierten humanen Tumorzellen wurden Zellen der zervikalen Carcinoma Tumorzell-Linie HeLaS3 (erhalten von American Type Culture Collection (ATCC)) in Ham's F12 Medium (Life Technologies) und 10% fötalem Rinderserum (Life Technologies) kultiviert und in der log-Wachstumsphase geerntet. Anschließend wurden die HeLaS3 Zellen in 96-well Platten (Costar) mit einer Dichte von 1000 Zellen pro well eingebracht und über Nacht in einem Inkubator (bei 37°C und 5 % CO2) inkubiert, wobei auf jeder Platte 6 wells nur mit Medium gefüllt wurden (3 wells zur Mediumkontrolle, 3 wells zur Inkubation mit reduzierten AlamarBlue). Die Wirksubstanzen wurden in verschiedenen Konzentrationen (gelöst in DMSO; Endkonzentration: 1%) zu den Zellen zugegeben (jeweils als Dreifachbestimmung) Nach 72 Stunden Inkubation wurden zu jeden well 20 µl AlamarBlue (AccuMed International) zugesetzt, und die Zellen für weitere 7 Stunden inkubiert. Zur Kontrolle wurde zu 3 wells je 20 µl reduziertes Alamar Blue gegeben (AlamarBlue Reagenz, das für 30 min autoklaviert wurde). Nach 7 h Inkubation wurde der Farbumsatz des AlamarBlue Reagenz in den einzelnen wells in einem Perkin Elmer Fluoreszenspektrophotometer bestimmt (Exitation 530 nm, Emission 590 nm, Slits 15, Integrate time 0.1). Die Menge an umgesetzten AlamarBlue Reagenz repräsentiert die metabolische Aktivität der Zellen. Die relative Zellaktivität wurde in Prozent der Kontrolle (HeLa S3 Zellen ohne Inhibitor) berechnet und die Wirkstoffkonzentration, die die Zellaktivität zu 50% hemmt (IC^50) abgeleitet. Die Werte wurden hierbei aus dem Mittelwert von drei Einzelbestimmungen - unter Korrektur des Leerwertes (Mediumkantrolle)- berechnet.

[1] = HeLa S3, HeLa cells, unit inferred

Compound: COc1cc(C(=O)NC2CCNCC2)ccc1Nc1ncc2c(n1)N(C1CCCC1)[C@H](C)C(=O)N2C [compound 238]
- IC50 [1]: 15 nM

Compound: COc1cc(C(=O)NC(C)(C)CN2CCCC2)ccc1Nc1ncc2c(n1)N(c1ccccc1OC)[C@H](C)C(=O)N2C [compound 227]
- IC50 [1]: 853 nM

Compound: CC[C@@H]1C(=O)N(C)c2cnc(Nc3ccc(C(=O)NC(C)(C)CN4CCOCC4)cc3OC)nc2N1C1CCCC1 [compound 239]
- IC50 [1]: 51 nM

Compound: COc1cc(C(=O)NC2CCN(C)CC2)ccc1Nc1ncc2c(n1)N(c1ccccc1OC)[C@H](C)C(=O)N2C [compound 226]
- IC50 [1]: 295 nM

Compound: COc1cc(C(=O)NC(C)(C)CN(C)C)ccc1Nc1ncc2c(n1)N(C1CCCCC1)[C@H](C)C(=O)N2C [compound 240]
- IC50 [1]: 17 nM

Compound: COc1cccc(N2c3nc(Nc4ccc(C(=O)NC5CCN(C)CC5)cc4)ncc3N(C)C(=O)[C@H]2C)c1 [compound 225]
- IC50 [1]: 1180 nM

Compound: COc1cccc(N2c3nc(Nc4ccc(C(=O)NC5CCN(C)CC5)cc4OC)ncc3N(C)C(=O)[C@H]2C)c1 [compound 224]
- IC50 [1]: 1060 nM

Compound: CC[C@@H]1C(=O)N(C)c2cnc(Nc3ccc(C(=O)NC(C)(C)CN4CCN(C)CC4)cc3OC)nc2N1CCC(C)C [compound 241]
- IC50 [1]: 44 nM

Compound: CC[C@@H]1C(=O)N(C)c2cnc(Nc3ccc(C(=O)NC4CCN(C)CC4)cc3OC)nc2N1C1CCCC1 [compound 46]
- IC50 (HeLa S3, 72 h): 12 nM
